Results published in patent US20240300968A1, “6-SUBSTITUTED NAPHTHALENE-1,3-DISULFONIC ACID DERIVATIVES AS MODULATORS OF THE EXTRACELLULAR NICOTINAMIDE PHOSPHORIBOSYL TRANSFERASE (ENAMPT) FOR THE TREATMENT OF E.G. DIABETES” (The University of Manchester, priority 2021, published 2024).
Where two headings read alike, the source gives them in different places.

Experiments:
NAMPT [1] = biological target: T1, NAMPT (Homo sapiens (Human), UniProt P43490); experiment: Tm shift assay (thermal melting, SYPRO Orange); type: binding; conditions: read-out: NAMPT Tm shift
T1 sequence (P43490 whole entry, species assumed): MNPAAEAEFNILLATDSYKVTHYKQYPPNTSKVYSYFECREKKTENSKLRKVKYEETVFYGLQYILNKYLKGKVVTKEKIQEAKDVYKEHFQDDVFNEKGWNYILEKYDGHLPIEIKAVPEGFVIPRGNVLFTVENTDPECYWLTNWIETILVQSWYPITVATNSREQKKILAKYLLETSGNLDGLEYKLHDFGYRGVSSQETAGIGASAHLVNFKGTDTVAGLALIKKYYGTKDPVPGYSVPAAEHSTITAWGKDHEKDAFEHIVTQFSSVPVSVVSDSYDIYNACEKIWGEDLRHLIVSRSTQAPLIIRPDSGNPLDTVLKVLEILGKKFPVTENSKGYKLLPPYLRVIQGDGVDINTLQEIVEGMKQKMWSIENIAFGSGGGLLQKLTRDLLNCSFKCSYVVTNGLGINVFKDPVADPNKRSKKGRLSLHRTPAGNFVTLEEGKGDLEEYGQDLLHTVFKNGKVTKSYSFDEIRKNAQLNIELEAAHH

THP-1 cells = experiment: THP-1 WST-1 assay; type: cell-based; conditions: Homo sapiens, 1 μM test compound, 48 hrs, average of three replicates
Protocol: THP-1 cells were plated at […] (400,000 cells per mL) in a final volume of 150 μL media (RPMI-1640 containing 10% v/v FBS) containing 1 μM test compound. Samples were incubated for 48 hrs at which point 15 μL WST-1 solution (Sigma-Aldrich) was added. Light was excluded and the samples incubated for a further 2 hrs. Absorbance of wells were read at 450 nm and 630 nm using a Hidex Sense plate reader. Metabolic inhibition was determined by the absorbance at 450 nm and transformed to % control using Excel. Data reported is an average of three replicates.

NAMPT [2] = biological target: T1, NAMPT; experiment: Native mass spectrometry of NAMPT incubated with compound; type: binding; conditions: NAMPT 5 μmol/l with compound 5 μmol/l, 12 hours; m/z 6125-6500 region
[3] = compound 100 μM, shift vs protein without ligand, mean of 3 independent repeats

| ΔTm at 100 µM (NAMPT [1]; [3]) [°C] | ΔTm at 100 µM (NAMPT [1]) [°C] | complex between NAMPT and compound in native mass spectrum (NAMPT [2]) | Compound | inhibition at 1 µM (THP-1 cells) [%] |
| --- | --- | --- | --- | --- |
| 10.3 | – | – | O=C(NCc1ccc(F)c(-c2ccc3cc(S(=O)(=O)O)cc(S(=O)(=O)O)c3c2)c1)Nc1ccc(S(=O)(=O)N2CCCCC2)cc1 [Example 1, 6-(2-fluoro-5-((3-(4-(piperidin-1-ylsulfonyl)phenyl)ureido)methyl)phenyl)-4-(trioxidaneylthio)naphthalene-2-sulfonic acid] | < 0 |
| 9.1 | – | – | O=C(/C=C/c1ccc(F)c(-c2ccc3cc(S(=O)(=O)O)cc(S(=O)(=O)O)c3c2)c1)NCCCCC1CCN(C(=O)c2ccccc2)CC1 [Example 2, (E)-6-(5-(3-((4-(1-benzoylpiperidin-4-yl)butyl)amino)-3-oxoprop-1-en-1-yl)-2-fluorophenyl)-4-(trioxidaneylthio)naphthalene-2-sulfonic acid] | 70.4 |
| 12.2 | – | – | O=C(NCc1ccc(F)c(-c2ccc3cc(S(=O)(=O)O)cc(S(=O)(=O)O)c3c2)c1)Nc1ccc(S(=O)(=O)c2ccccc2)cc1 [Example 3, 6-(2-fluoro-5-((3-(4-(phenylsulfonyl)phenyl)ureido)methyl)phenyl)-4-(trioxidaneylthio) naphthalene-2-sulfonic acid] | < 0 |
| – | – | – | O=S(=O)(O)c1cc(S(=O)(=O)O)c2cc(-c3cccc(-c4cn(CCCCCCOc5ccccc5-c5ccccc5)nn4)c3)ccc2c1 [Example 4] | < 0 |
| 10.8 | – | – | O=C(NCc1cccc(-c2ccc3cc(S(=O)(=O)O)cc(S(=O)(=O)O)c3c2)c1)Nc1ccc(S(=O)(=O)N2CCCCC2)cc1 [Example 5] | < 0 |
| 9.6 | – | – | O=C(NCc1cc(-c2ccc3cc(S(=O)(=O)O)cc(S(=O)(=O)O)c3c2)ccc1F)Nc1ccc(S(=O)(=O)N2CCCCC2)cc1 [Example 6, 6-(4-fluoro-3-((3-(4-(piperidin-1-ylsulfonyl)phenyl)ureido)methyl)phenyl)-4-(trioxidaneylthio) naphthalene-2-sulfonic acid] | 1 |
| 7.5 | – | – | COc1ccc(CNC(=O)Nc2ccc(S(=O)(=O)N3CCCCC3)cc2)cc1-c1ccc2cc(S(=O)(=O)O)cc(S(=O)(=O)O)c2c1 [Example 7] | < 0 |
| 9.7 | – | – | O=C(NCc1ccc(F)c(-c2ccc3cc(S(=O)(=O)O)cc(S(=O)(=O)O)c3c2)c1)Nc1ccc(S(=O)(=O)N2CC3CCC(C2)O3)cc1 [Example 8, 6-(5-((3-(4-((8-oxa-3-azabicyclo[3.2.1]octan-3-yl)sulfonyl)phenyl)ureido)methyl)-2-fluorophenyl)-4-(trioxidaneylthio)naphthalene-2-sulfonic acid] | < 0 |
| 4.2 | – | – | O=C(NCc1ccc(S(=O)(=O)N2CCCCC2)cc1)c1cc2cc(-c3ccc4cc(S(=O)(=O)O)cc(S(=O)(=O)O)c4c3)ccc2[nH]1 [Example 9] | < 0 |
| 20.5 | – | – | O=C(NC[C@@H]1CCOC1)c1ccc(NC(=O)N2Cc3ccc(-c4ccc5cc(S(=O)(=O)O)cc(SOOO)c5c4)cc3C2)cc1 [Example 10, (S)-6-(2-((4-(((Tetrahydrofuran-3-yl)methyl)carbamoyl)phenyl)carbamoyl)isoindolin-5-yl)-4-(trioxidaneylthio)naphthalene-2-sulfonic acid] | – |
| – | 2.6 | complex dissociates | O=C(/C=C/c1cccnc1)NCCCCC1CCN(C(=O)c2ccccc2)CC1 [FK866, (E)-N-[4-(1-benzoylpiperidin-4-yl)butyl]-3-pyridin-3-ylprop-2-enamide, reference compound] | 79.6 |
